Data reported in ChEMBL document CHEMBL1125472, “5-lipoxygenase: properties, pharmacology, and the quinolinyl(bridged)aryl class of inhibitors” (J Med Chem, 1992).

Legend:
[1] = target: T1, Polyunsaturated fatty acid 5-lipoxygenase (Rattus norvegicus, UniProt P12527); assay: The compound was tested for inhibitory activity against 5-lipoxygenase in rat polymorphonuclear leukocytes[PMNS]; format: cell-based
T1 sequence (P12527 whole entry): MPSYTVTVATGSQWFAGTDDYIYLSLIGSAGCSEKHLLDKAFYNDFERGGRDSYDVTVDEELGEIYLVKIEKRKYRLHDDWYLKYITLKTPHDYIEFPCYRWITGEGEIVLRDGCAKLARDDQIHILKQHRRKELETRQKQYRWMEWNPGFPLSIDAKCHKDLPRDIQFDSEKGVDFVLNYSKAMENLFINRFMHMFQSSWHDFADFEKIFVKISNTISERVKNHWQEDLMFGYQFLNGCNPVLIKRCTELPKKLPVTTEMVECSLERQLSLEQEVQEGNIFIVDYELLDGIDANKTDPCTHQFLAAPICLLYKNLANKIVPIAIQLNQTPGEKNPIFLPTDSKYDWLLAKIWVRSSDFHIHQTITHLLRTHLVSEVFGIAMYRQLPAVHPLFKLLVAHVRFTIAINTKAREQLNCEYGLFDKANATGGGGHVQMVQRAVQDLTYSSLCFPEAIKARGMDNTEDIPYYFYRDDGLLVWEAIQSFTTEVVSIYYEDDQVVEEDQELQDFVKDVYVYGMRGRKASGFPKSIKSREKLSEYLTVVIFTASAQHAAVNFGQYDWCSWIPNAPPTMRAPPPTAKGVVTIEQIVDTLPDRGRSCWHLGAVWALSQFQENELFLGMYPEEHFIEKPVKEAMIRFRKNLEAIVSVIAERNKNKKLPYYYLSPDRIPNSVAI

[2] = target: Cyclooxygenase (Rattus norvegicus) (UniProt P35355+Q63921); assay: The compound was tested for inhibition against Prostaglandin G/H synthase in rat polymorphonuclear leukocytes[PMNS] at 10 uM concentration; format: cell-based
[3] = target: T2, Polyunsaturated fatty acid 5-lipoxygenase (Rattus norvegicus) (UniProt P12527); assay: The compound was tested for inhibition against 5-lipoxygenase in rat polymorphonuclear leukocytes[PMNS] at 10 uM concentration; format: cell-based
T2 sequence (whole entry): T1 sequence (P12527 whole entry)

Cavia porcellus [4] = species on record: Cavia porcellus; assay: The effective dose for inhibition of LTD4-induced contractions of guinea pig trachea; format: functional
Cavia porcellus [5] = species on record: Cavia porcellus; assay: The compound was tested for inhibition of LTD4-induced bronchoconstriction in guinea pig; format: functional
[6] = target: T1, Polyunsaturated fatty acid 5-lipoxygenase; assay: The compound was tested for inhibitory activity against 5-lipoxygenase using rat polymorphonuclear leukocytes[PMNS]
Cyclooxygenase [7] = target: T3, Cyclooxygenase (Rattus norvegicus, UniProt P35355+Q63921); assay: The compound was tested for inhibitory activity against Prostaglandin G/H synthase in rat polymorphonuclear leukocytes[PMNS]; format: cell-based
T3 sequence (P35355 whole entry): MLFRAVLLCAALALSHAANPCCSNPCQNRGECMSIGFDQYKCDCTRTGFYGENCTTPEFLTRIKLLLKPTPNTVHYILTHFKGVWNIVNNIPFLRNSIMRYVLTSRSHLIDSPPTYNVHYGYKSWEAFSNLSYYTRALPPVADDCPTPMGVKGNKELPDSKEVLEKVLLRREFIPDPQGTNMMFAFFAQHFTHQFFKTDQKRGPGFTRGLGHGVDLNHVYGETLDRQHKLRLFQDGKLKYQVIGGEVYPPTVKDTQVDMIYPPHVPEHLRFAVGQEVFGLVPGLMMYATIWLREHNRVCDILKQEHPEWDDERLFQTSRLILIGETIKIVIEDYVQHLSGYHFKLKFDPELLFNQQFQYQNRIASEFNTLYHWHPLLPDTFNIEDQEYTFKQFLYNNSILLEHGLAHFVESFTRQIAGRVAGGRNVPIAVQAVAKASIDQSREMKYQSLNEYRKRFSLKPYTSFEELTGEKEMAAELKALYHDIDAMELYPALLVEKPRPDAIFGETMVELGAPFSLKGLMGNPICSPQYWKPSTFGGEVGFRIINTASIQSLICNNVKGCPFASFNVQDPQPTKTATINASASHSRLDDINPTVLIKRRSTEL
T3 sequence (Q63921 whole entry): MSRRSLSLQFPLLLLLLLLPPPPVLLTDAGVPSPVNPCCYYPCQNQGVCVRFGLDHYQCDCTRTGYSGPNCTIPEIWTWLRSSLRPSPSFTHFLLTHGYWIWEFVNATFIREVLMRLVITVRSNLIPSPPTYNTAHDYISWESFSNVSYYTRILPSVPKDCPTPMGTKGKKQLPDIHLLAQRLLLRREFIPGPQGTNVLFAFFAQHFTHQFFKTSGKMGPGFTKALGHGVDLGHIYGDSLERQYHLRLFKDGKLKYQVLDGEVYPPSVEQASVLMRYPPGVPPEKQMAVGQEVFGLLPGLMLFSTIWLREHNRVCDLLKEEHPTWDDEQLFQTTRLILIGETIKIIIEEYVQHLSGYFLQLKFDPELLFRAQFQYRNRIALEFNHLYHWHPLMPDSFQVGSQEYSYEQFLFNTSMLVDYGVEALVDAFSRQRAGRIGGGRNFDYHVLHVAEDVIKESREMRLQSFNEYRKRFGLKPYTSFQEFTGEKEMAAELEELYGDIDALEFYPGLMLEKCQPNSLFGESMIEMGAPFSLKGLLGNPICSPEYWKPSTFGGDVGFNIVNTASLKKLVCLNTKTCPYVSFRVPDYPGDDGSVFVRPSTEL

[8] = target: T2, Polyunsaturated fatty acid 5-lipoxygenase (Rattus norvegicus); assay: The compound was tested for inhibition against 5-Lipoxygenase in rat polymorphonuclear leukocytes at 10 uM concentration; format: cell-based
Cyclooxygenase [9] = target: Cyclooxygenase (Homo sapiens, UniProt P35354+P23219); assay: The compound was tested for inhibitory activity against Prostaglandin G/H synthase in human polymorphonuclear leukocytes[PMNS]; format: cell-based
[10] = target: T1, Polyunsaturated fatty acid 5-lipoxygenase; assay: The compound was tested for inhibitory activity against 5-Lipoxygenase in rat RBL-1; format: cell-based
[11] = target: T4, Polyunsaturated fatty acid 5-lipoxygenase (Homo sapiens, UniProt P09917); assay: The compound was tested for inhibitory activity against LT synthesis in human polymorphonuclear leukocytes[PMNS]; format: cell-based
T4 sequence (P09917 whole entry): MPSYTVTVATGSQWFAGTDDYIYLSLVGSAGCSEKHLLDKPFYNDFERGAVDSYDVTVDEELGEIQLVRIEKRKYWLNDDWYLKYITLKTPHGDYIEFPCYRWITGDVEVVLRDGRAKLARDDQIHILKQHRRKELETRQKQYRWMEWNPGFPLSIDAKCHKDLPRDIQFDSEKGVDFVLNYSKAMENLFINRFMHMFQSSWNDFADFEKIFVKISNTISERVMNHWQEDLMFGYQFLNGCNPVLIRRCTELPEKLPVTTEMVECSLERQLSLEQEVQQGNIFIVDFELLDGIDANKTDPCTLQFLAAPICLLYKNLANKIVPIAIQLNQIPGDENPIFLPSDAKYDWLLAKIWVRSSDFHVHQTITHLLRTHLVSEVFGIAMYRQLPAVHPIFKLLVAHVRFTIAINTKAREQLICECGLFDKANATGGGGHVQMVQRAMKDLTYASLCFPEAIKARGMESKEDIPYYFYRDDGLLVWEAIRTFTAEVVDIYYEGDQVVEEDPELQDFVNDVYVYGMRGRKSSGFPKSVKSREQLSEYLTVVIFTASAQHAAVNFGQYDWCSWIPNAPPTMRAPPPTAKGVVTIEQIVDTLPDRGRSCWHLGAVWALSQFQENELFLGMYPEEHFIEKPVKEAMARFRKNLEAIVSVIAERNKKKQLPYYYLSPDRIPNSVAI

[12] = target: T1, Polyunsaturated fatty acid 5-lipoxygenase; assay: The compound was tested for inhibitory activity against 5-lipoxygenase translocation inhibitor in rat RBL-2H3 cells; format: functional, cell-based
Homo sapiens [13] = species on record: Homo sapiens; assay: The compound was tested for inhibitory activity against Leukotriene synthesis in human monocytes; format: functional
[14] = target: T5, Leukotriene C4 synthase (Rattus norvegicus) (UniProt Q925U2); assay: The compound was tested for inhibition LTC4 synthase from whole cells in rat
T5 sequence (whole entry): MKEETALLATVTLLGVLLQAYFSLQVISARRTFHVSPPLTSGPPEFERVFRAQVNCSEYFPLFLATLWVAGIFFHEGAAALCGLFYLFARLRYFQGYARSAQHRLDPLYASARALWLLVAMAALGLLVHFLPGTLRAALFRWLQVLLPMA

[15] = target: T2, Polyunsaturated fatty acid 5-lipoxygenase (Rattus norvegicus); assay: The compound was tested for inhibition of 5-lipoxygenase translocation in SAR in rat RBL-2H3 cells; format: functional, cell-based
[16] = target: T2, Polyunsaturated fatty acid 5-lipoxygenase (Rattus norvegicus); assay: The compound was tested for inhibition of isolated 5-lipoxygenase
Homo sapiens [17] = species on record: Homo sapiens; assay: The compound was tested for inhibitory activity against 5-Lipoxygenase in human polymorphonuclear leukocytes[PMNS]; format: functional
Cavia porcellus [18] = species on record: Cavia porcellus; assay: The compound was tested for binding affinity against guinea pig lung membrane using [3H]LTD4 as radioligand
Cavia porcellus [19] = assay: The compound was tested for inhibition of LTD4 response in guinea pig bronchoconstriction assay after intraduodenal administration (30 mg/kg)
[20] = target: T4, Polyunsaturated fatty acid 5-lipoxygenase
[21] = The compound was tested for inhibitory activity against Leukotriene B4 receptor in mouse mastocytoma
RBL-2H3 [22] = assay: The compound was tested for inhibition of translocation in SAR in RBL-2H3 cells; format: functional, Rattus norvegicus
[23] = target: T2, Polyunsaturated fatty acid 5-lipoxygenase (Rattus norvegicus); assay: The compound was tested for inhibition of isolated 5-Lipoxygenase
RBL-2H3 [24] = assay: The compound was tested for inhibition LTC4 synthesis; format: functional, Rattus norvegicus
Rattus norvegicus = species on record: Rattus norvegicus; assay: The compound was tested for inhibition of [3H]LTD4 binding to lung membrane; format: functional
[25] = Compound was tested for spasmogenic activity of LTD4 on lung strips; format: functional
[26] = The effective dose for inhibition of LTD4-induced wheal formation after oral administration; format: functional
[27] = Compound was tested for spasmogenic activity of LTE4 on lung strips; format: functional
[28] = Compound was tested for spasmogenic activity of LTC4 on lung strips; format: functional
[29] = The effective dose for inhibition of anaphylactic death after oral administration; format: functional
Cavia porcellus [30] = species on record: Cavia porcellus; assay: The compound was tested for inhibitory activity against LTD4-induced contractions of guinea pig ileum; format: functional
[31] = target: T1, Polyunsaturated fatty acid 5-lipoxygenase; assay: The compound was tested for inhibitory activity against 5-Lipoxygenase in rat polymorphonuclear leukocytes[PMNS]; format: cell-based

CCCCC[C@H](O)c1cccc(OCc2cccc(CC(=O)O)c2)c1
IC50 [1]: 2500 nM

CCc1cc(OCc2ccc3ccccc3n2)cc2c3c([nH]c12)C(CC)(CC(=O)O)OCC3 (stereo unspecified)
Inhibition [2]: 47% | Inhibition [3]: 91%

CONC(=O)Cc1cccc(OCc2ccc3ccccc3n2)c1
ED50 (Cavia porcellus [4]): 7.9 mg/kg

Oc1ccccc1OCc1ccc2ccccc2n1
Inhibition (Cavia porcellus [5]): 28% | IC50 [6]: 53000 nM | IC50 (Cyclooxygenase [7]): 5820 nM

CC(C(=O)O)c1ccc2c3cc(OCc4ccc5ccccc5n4)ccc3n(Cc3ccc4ccccc4n3)c2c1 (stereo unspecified)
Inhibition [8]: 92%

CC(C)(C)CC(=O)c1c(CC(C)(C)C(=O)O)n(Cc2ccc(Cl)cc2)c2ccc(OCc3ccc4ccccc4n3)cc12
IC50 (Cyclooxygenase [9]): 2 nM

COc1ccc(-n2nc(CCC(=O)N(C)O)cc2-c2ccc(Cl)cc2)cc1 [TEPOXALIN]
IC50 [10]: 150 nM

O=C(O)CCc1nc(-c2ccc(OCc3ccc4ccccc4n3)cc2)c(-c2ccccc2)o1
Inhibition [3]: 96%

CC(C)c1ccc2c(c1)c(SC(C)(C)C)c(CC(C)(C)C(=O)O)n2Cc1ccc(Cl)cc1
IC50 [11]: 60 nM | IC50 [12]: 5 nM | IC50 (Homo sapiens [13]): 50 nM | Inhibition [14]: 3 nM | Inhibition [15]: 35 nM | Inhibition [16]: > 20 µM | IC50 (Homo sapiens [17]): 2.5 nM

CCCCCC(O)c1cccc(OCc2ccc3ccccc3n2)c1 (stereo unspecified) [REV-5901]
Ki (Cavia porcellus [18]): 700 nM | Inhibition (Cavia porcellus [19]): 74%

CSc1ccccc1/C=C/C(=O)N(C)O
IC50 [20]: 100 nM

c1cc(Cc2nnn[nH]2)cc(OCc2ccc3ccccc3n2)c1
IC50 [1]: 6200 nM | IC50 (Cyclooxygenase [7]): 13400 nM | ED50 (Cavia porcellus [4]): 0.4 mg/kg

CCOC(=O)Oc1ccc(/C=C/C=C/C(=O)NCCN2CCC(OC(c3ccccc3)c3ccccc3)CC2)cc1OC [LINETASTINE]
IC50 [21]: 320 nM

CCCc1c(OCC(O)COc2cccc(NC(=O)C(=O)OCC)c2C#N)ccc(C(C)=O)c1O (stereo unspecified)
IC50 [1]: 32000 nM

COc1ccc2cc([C@H](C)C(=O)O)ccc2c1 [NAPROXEN]
Inhibition (RBL-2H3 [22]): >10 µM | Inhibition [23]: > 20 µM | Inhibition (RBL-2H3 [24]): >10 µM

c1ccc(Cc2nn[nH]n2)c(COc2ccc(OCc3ccc4ccccc4n3)cc2)c1 [RG-12525]
Ki (Rattus norvegicus): 3 nM | Kb [25]: 2.7 nM | ED50 [26]: 5 mg/kg | Kb [27]: 2.7 nM | Kb [28]: 2.7 nM | ED50 [29]: 2.2 mg/kg

CC(C)(C)c1cc(-c2cn3ncc(=O)nc3s2)cc(C(C)(C)C)c1O
IC50 (Cyclooxygenase [9]): 25000 nM

O=C(O)c1ccccc1Nc1cccc(OCc2ccc3ccccc3n2)c1 [SR-2640]
IC50 (Cavia porcellus [30]): 3 nM | IC50 [1]: 10000 nM | IC50 (Cyclooxygenase [7]): 2000 nM

CCN(CC)C(=O)N(C)C[C@H](O)c1cccc(OCc2ccc3ccccc3n2)c1
IC50 [1]: 2000 nM

O=C(O)Cc1ccc(-c2ccc(OCc3ccc4ccccc4n3)cc2)c(F)c1
Inhibition [3]: 100%

O=C(CCCCCCCCc1ccccc1)NO
IC50 [20]: 6000 nM

COc1c(OC)c(OC(C)=O)c2cc(Cl)ccc2c1OC(C)=O [LONAPALENE]
IC50 [10]: 500 nM

CC(c1ccoc1)N(O)C(N)=O (stereo unspecified)
IC50 [10]: 11000 nM

Cc1ccc(S(=O)(=O)NC(=O)c2cccc(OCc3ccc4ccccc4n3)c2)cc1
IC50 [31]: 3900 nM | ED50 (Cavia porcellus [4]): 3 mg/kg
